# Patent US20140206681A1, “BTK INHIBITORS” (priority 2013, published 2014)
# Columns and labels:
# [1] = molecular target: T1, BTK enzyme (recombinant full-length BTK, hBTK) (Homo sapiens, UniProt Q06187); test: BTK enzyme activity assay, LANCE TR-FRET; assay type: biochemical; conditions: 50 pM hBTK, 2 μM biotin-A5-peptide, 25 μM ATP; 60 min compound & enzyme incubation; read-out: IC50 BTK activity value
# T1 construct: recombinant protein from baculovirus-transfected Sf9 cells: full-length BTK, 6HIS-tag cleaved; 6HIS (cleaved yes); made in house; host or cells: baculovirus-transfected Sf9 cells
# [2] = tested on: HeLa cells; test: [3H]Adenosine uptake functional cellular assay; assay type: cell-based; conditions: Homo sapiens, HeLa, accumulation of [3H]adenosine into HeLa cells; compound range 10 μM to […]; read-out: Adenosine uptake inhibition IC50
# Description: Compounds are also screened in an adenosine uptake functional cellular assay using the protocol described below. The adenosine uptake inhibition assay may be used to identify compounds with the potential for a negative cardiovascular side effect.
# Adenosine uptake activity was determined by monitoring the accumulation of tritiated adenosine into HeLa cells (ATCC catalog # CCL-2) using a PMT-based radiometric detection instrument. […] These cells were incubated overnight at 37° C. in a humidified atmosphere with 5% (v/v) CO2. After this time the growth medium was removed and replaced with 40 μL assay medium comprising: Hanks balanced salts solution (HBSS; Thermo Fisher Catalog # SH30268.01)+5% (v/v) FBS. […] 40 μL of compound in the assay medium was dispensed into individual wells of the Cytostar-T plates and the plates were incubated for 30 minutes under ambient laboratory conditions. Following this incubation, 20 μL of 500 nM [^3H]adenosine (American Radiolabeled Chemicals Inc. Catalog # ART0287) was added in the assay medium and incubated for a further 60 minutes under ambient laboratory conditions. The amount of radiolabel accumulation was then determined using a Perkin Elmer Topcount NXT microplate reader. In brief, HeLa cells adhere to the bottom of the Cytostar-T plate, uptake of [^3H]adenosine into these cells brings the radiolabel into sufficient proximity to excite the scintillant in the base of the plates. These events are captured by single PMT, time-resolved coincidence counting. IC50 values were determined by 4 parameter robust fit of counts per second values vs. (Log10) compound concentrations.
# T1 sequence (Q06187 whole entry): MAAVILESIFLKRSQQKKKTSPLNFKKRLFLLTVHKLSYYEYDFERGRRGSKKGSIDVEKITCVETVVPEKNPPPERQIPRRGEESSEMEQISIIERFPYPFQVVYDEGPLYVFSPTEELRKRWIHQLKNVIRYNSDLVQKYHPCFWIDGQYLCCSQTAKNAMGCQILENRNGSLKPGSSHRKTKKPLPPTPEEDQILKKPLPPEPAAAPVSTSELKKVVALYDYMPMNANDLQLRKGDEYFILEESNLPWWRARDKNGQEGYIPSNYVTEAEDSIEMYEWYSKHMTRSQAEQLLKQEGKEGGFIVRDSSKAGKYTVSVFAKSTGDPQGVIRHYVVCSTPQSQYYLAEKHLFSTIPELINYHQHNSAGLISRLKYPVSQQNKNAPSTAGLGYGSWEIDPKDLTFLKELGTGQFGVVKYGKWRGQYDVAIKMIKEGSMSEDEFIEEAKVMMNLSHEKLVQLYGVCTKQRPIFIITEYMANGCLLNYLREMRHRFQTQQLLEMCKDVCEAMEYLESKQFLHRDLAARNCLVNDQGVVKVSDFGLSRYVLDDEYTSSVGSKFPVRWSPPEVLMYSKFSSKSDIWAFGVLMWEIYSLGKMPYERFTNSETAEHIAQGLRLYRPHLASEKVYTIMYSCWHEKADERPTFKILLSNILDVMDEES
IC50 [1],IC50 [2],Compound
4.1 nM,811 nM,"Nc1nccn2c([C@H]3CC[C@@H]4C[C@H](O)C(=O)N4C3)nc(-c3ccc(C(=O)Nc4cc(C(F)(F)F)ccn4)cc3)c12 [Example 58, 4-{8-amino-3-[(2S,6S,8aR)-2-hydroxy-3-oxooctahydroindolizin-6-yl]imidazo[1,5-a]pyrazin-1-yl}-N-[4-(trifluoromethyl)pyridin-2-yl]benzamide]"
237 nM,5390 nM,"CCn1nc(NC(=O)c2ccc(-c3nc([C@@H]4CC[C@H]5CCC(=O)N5C4)n4ccnc(N)c34)cc2)cc1C(F)(F)F [Example 185, 4-{8-amino-3-[(6R,8aS)-3-oxooctahydroindolizin-6-yl]imidazo[1,5-a]pyrazin-1-yl}-N-[1-ethyl-5-(trifluoromethyl)-1H-pyrazol-3-yl]benzamide]"
0.53 nM,71.3 nM,"C[C@@H]1OC(=O)N2C[C@H](c3nc(-c4ccc(C(=O)Nc5cc(C6CC6)ccn5)cc4)c4c(N)nccn34)CC[C@@H]12 [Example 46, 4-{8-amino-3-[(1S,6R,8aS)-1-methyl-3-oxohexahydro[1,3]oxazolo[3,4-a]pyridin-6-yl]imidazo[1,5-a]pyrazin-1-yl}-N-(4-cyclopropylpyridin-2-yl)benzamide]"
1.3 nM,1890 nM,"CCOc1cc(C(=O)Nc2cc(C(F)(F)F)n(C)n2)c(F)cc1-c1nc([C@@H]2CC[C@H]3CCC(=O)N3C2)n2ccnc(N)c12 [Example 152, 4-{8-amino-3-[(6R,8aS)-3-oxooctahydroindolizin-6-yl]imidazo[1,5-a]pyrazin-1-yl}-5-ethoxy-2-fluoro-N-[1-methyl-5-(trifluoromethyl)-1H-pyrazol-3-yl]benzamide]"
2.2 nM,310 nM,"Cn1nc(NC(=O)c2ccc(-c3nc([C@@H]4CC[C@H]5CCC(=O)N5C4)n4ccnc(N)c34)c(Cl)c2)cc1C(F)(F)F [Example 190, 4-{8-amino-3-[(6R,8aS)-3-oxooctahydroindolizin-6-yl]imidazo[1,5-a]pyrazin-1-yl}-3-chloro-N-[1-methyl-5-(trifluoromethyl)-1H-pyrazol-3-yl]benzamide]"
0.096 nM,104 nM,"C[C@H]1OC(=O)N2C[C@H](c3nc(-c4ccc(C(=O)Nc5cc(C(F)(F)F)ccn5)cc4F)c4c(N)nccn34)CC[C@@H]12 [Example 31, 4-{8-amino-3-[(1R,6R,8aS)-1-methyl-3-oxohexahydro[1,3]oxazolo[3,4-a]pyridin-6-yl]imidazo[1,5-a]pyrazin-1-yl}-3-fluoro-N-[4-(trifluoromethyl)pyridin-2-yl]benzamide]"
347 nM,≥ 10000 nM,"NC(=O)c1cc(C(=O)Nc2cc(C(F)(F)F)ccn2)ccc1-c1nc([C@@H]2CC[C@H]3CCC(=O)N3C2)n2ccnc(N)c12 [Example 124, 4-{8-amino-3-[(6R,8aS)-3-oxooctahydroindolizin-6-yl]imidazo[1,5-a]pyrazin-1-yl}-N~1~-[4-(trifluoromethyl)pyridin-2-yl]benzene-1,3-dicarboxamide]"
0.058 nM,71.7 nM,"CC1CC(=O)N2C[C@H](c3nc(-c4ccc(C(=O)Nc5cc(C(F)(F)F)ccn5)cc4)c4c(N)nccn34)CC[C@H]12 (stereo in doubt) [Example 63, 4-{8-amino-3-[(1S,6R,8aR)-1-methyl-3-oxooctahydroindolizin-6-yl]imidazo[1,5-a]pyrazin-1-yl}-N-[4-(trifluoromethyl)pyridin-2-yl]benzamide]"

# The remaining lines, values behind:
Compound,IC50 [1],IC50 [2]
"C[C@H]1OC[C@@H]2CC[C@@H](c3nc(-c4ccc(C(=O)Nc5cc(C(F)(F)F)ccn5)cc4)c4c(N)nccn34)CN2C1=O [Example 77, 4-(8-amino-3-((3R,7R,9aS)-3-methyl-4-oxooctahydropyrido[2,1-c][1,4]oxazin-7-yl)imidazo[1,5-a]pyrazin-1-yl)-N-(4-(trifluoromethyl)pyridin-2-yl)benzamide]",0.13 nM,31.2 nM
"Nc1nccn2c([C@@H]3CC[C@H]4CN(CCO)CC(=O)N4C3)nc(-c3ccc(C(=O)Nc4cc(C(F)(F)F)ccn4)cc3)c12 [Example 66, 4-{8-amino-3-[(7R,9aS)-2-(2-hydroxyethyl)-4-oxooctahydro-2H-pyrido[1,2-a]pyrazin-7-yl]imidazo[1,5-a]pyrazin-1-yl}-N-[4-(trifluoromethyl)pyridin-2-yl]benzamide]",0.13 nM,206 nM
"Nc1ncc(Cl)n2c([C@@H]3CC[C@H]4CCC(=O)N4C3)nc(-c3ccc(C(=O)Nc4cc(C5CC5)ccn4)cc3OC3CC3)c12 [Example 147, 4-{8-amino-5-chloro-3-[(6R,8aS)-3-oxooctahydroindolizin-6-yl]imidazo[1,5-a]pyrazin-1-yl}-3-(cyclopropyloxy)-N-(4-cyclopropylpyridin-2-yl)benzamide]",0.75 nM,959 nM
"Nc1nccn2c([C@@H]3CC[C@H]4CN(CC(=O)O)CC(=O)N4C3)nc(-c3ccc(C(=O)Nc4cc(C(F)(F)F)ccn4)cc3)c12 [Example 108, {(7R,9aS)-7-[8-amino-1-(4-{[4-(trifluoromethyl)pyridin-2-yl]carbamoyl}phenyl)imidazo[1,5-a]pyrazin-3-yl]-4-oxooctahydro-2H-pyrido[1,2-a]pyrazin-2-yl}acetic acid]",0.22 nM,2880 nM
"COc1cc(C(=O)Nc2cc(C(F)(F)F)ccn2)ccc1-c1nc([C@@H]2CC[C@H]3CCC(=O)N3C2)n2c(C(F)(F)F)cnc(N)c12 [Example 213, 4-{8-amino-3-[(6R,8aS)-3-oxooctahydroindolizin-6-yl]-5-(trifluoromethyl)imidazo[1,5-a]pyrazin-1-yl}-3-methoxy-N-[4-(trifluoromethyl)pyridin-2-yl]benzamide]",2.7 nM,699 nM
"Nc1nccn2c([C@@H]3CC[C@H]4CCCN4C3)nc(-c3ccc(C(=O)Nc4cc(C(F)(F)F)ccn4)cc3)c12 [Example 87, 4-(8-amino-3-((6R,8aS)-octahydroindolizin-6-yl)imidazo[1,5-a]pyrazin-1-yl)-N-(4-(trifluoromethyl)pyridin-2-yl)benzamide]",0.67 nM,75.5 nM
"COc1cc(C(=O)Nc2cc(C(F)(F)F)ccn2)ccc1-c1nc([C@@H]2CC[C@@H]3N(C2)C(=O)OC3(C)C)n2ccnc(N)c12 [Example 90, 4-(8-amino-3-((6R,8aS)-1,1-dimethyl-3-oxohexahydro-1H-oxazolo[3,4-a]pyridin-6-yl)imidazo[1,5-a]pyrazin-1-yl)-3-methoxy-N-(4-(trifluoromethyl)pyridin-2-yl)benzamide]",0.18 nM,373 nM
"COCCN(C(=O)c1ccc(-c2nc([C@@H]3CC[C@H]4CCC(=O)N4C3)n3ccnc(N)c23)c(O)c1)c1cc(C(F)(F)F)ccn1 [Example 157, 4-{8-amino-3-[(6R,8aS)-3-oxooctahydroindolizin-6-yl]imidazo[1,5-a]pyrazin-1-yl}-3-hydroxy-N-(2-methoxyethyl)-N-[4-(trifluoromethyl)pyridin-2-yl]benzamide]",292 nM,1780 nM
"COc1cccc(NC(=O)c2ccc(-c3nc([C@@H]4CC[C@H]5CCC(=O)N5C4)n4ccnc(N)c34)cc2)n1 [Example 129, 4-{8-amino-3-[(6R,8aS)-3-oxooctahydroindolizin-6-yl]imidazo[1,5-a]pyrazin-1-yl}-N-(6-methoxypyridin-2-yl)benzamide]",81.2 nM,39.3 nM
"Nc1nccn2c([C@@H]3CC[C@H]4CCC(=O)N4C3)nc(-c3ccc(C(=O)Nc4cc(C(F)(F)F)ccn4)cc3Cl)c12 [Example 112, 4-{8-amino-3-[(6R,8aS)-3-oxooctahydroindolizin-6-yl]imidazo[1,5-a]pyrazin-1-yl}-3-chloro-N-[4-(trifluoromethyl)pyridin-2-yl]benzamide]",0.57 nM,415 nM
"COc1cc(C(=O)Nc2cc(C(F)(F)F)ccn2)ccc1-c1nc([C@@H]2CC[C@H]3CCC(=O)N3C2)n2c(F)cnc(N)c12 [Example 162, 4-{8-amino-5-fluoro-3-[(6R,8aS)-3-oxooctahydroindolizin-6-yl]imidazo[1,5-a]pyrazin-1-yl}-3-methoxy-N-[4-(trifluoromethyl)pyridin-2-yl]benzamide]",1.3 nM,1540 nM
"Nc1ncc(F)n2c([C@@H]3CC[C@H]4CCC(=O)N4C3)nc(-c3ccc(C(=O)Nc4cc(C(F)(F)F)ccn4)cc3)c12 [Example 160, 4-{8-amino-5-fluoro-3-[(6R,8aS)-3-oxooctahydroindolizin-6-yl]imidazo[1,5-a]pyrazin-1-yl}-N-[4-(trifluoromethyl)pyridin-2-yl]benzamide]",0.28 nM,290 nM
"N#Cc1cnc(NC(=O)c2ccc(-c3nc([C@@H]4CC[C@H]5CCC(=O)N5C4)n4ccnc(N)c34)cc2)cc1C(F)(F)F [Example 117, 4-{8-amino-3-[(6R,8aS)-3-oxooctahydroindolizin-6-yl]imidazo[1,5-a]pyrazin-1-yl}-N-[5-cyano-4-(trifluoromethyl)pyridin-2-yl]benzamide]",2.1 nM,102 nM
